How the values were obtained:
rice = assay: Root architecture modification in wild-type rice after submersion treatment; assay type: in vivo, Oryza sativa cv Nipponbare; conditions: 10^−8M, 24 hours submersion, assessed after two weeks, FIG. 3
Method: (§1) Oryza sativa cv Nipponbare wild-type and Tos17 insertion lines in POLLUX (line NC6453) and DMI3 were used for root architecture experiments (12, 13). Seeds were prepared by sterilizing with 2% bleach for 20 minutes, followed by 3, 5-minute rinses with sterile water. The sterile seeds were then imbibed overnight. Seeds were then plated on damp germination paper in Petri plates under sterile conditions and germinated in the dark at 25 degrees for 7 days. Germinated rice plants were then plated on Fahraeus medium on germination paper and grown at 22 degrees under constant light. After 5 days the plants were treated with 10^−8M LCOs and COs for 24 hours by submersion and re-plated onto Fåhræus Medium 1.5% agar plates (0.132 g/L CaCl2, 0.12 g/L MgSO4.7H2O, 0.1 g/L KH2PO4, 0.075 g/L Na2HPO4.2H2O, 5 mg/L Fe-citrate, and 0.07 mg/L each of MnCl2.4H2O, CuSO4.5H2O, ZnCl2, H3BO3, and Na2MoO4.2H2O, adjusted to pH 6.5 before autoclaving). As all signals were suspended in 50% ethanol, the appropriate concentration of ethanol in sterile DI water served as a control. Root system architecture was assessed after 2 weeks.
(§2) Total lateral roots of rice were enumerated manually two weeks after application of 10^−8M COs and LCOs. As COs and LCOs were suspended in 50% ethanol, the control is sterile deionized water containing the appropriate amount of ethanol. Lateral roots were defined as large and fine lateral roots emerging from crown roots, as well as fine lateral roots emerging from large lateral roots. Root system length was measured starting from the root-shoot junction to the tip of the longest root. The number of crown roots was assessed manually as those roots emerging from the root-shoot junction. Root type characterizations were based upon the descriptions in Gutjahr et al. (19). Data were assessed for normality using the Shapiro-Wilk test (α=0.01), and statistical significance was determined using a paired t-test assuming unequal variances, or a Mann-Whitney-Wilcoxon Test if normality was not observed (α=0.05). All statistical analysis was conducted using the R software package (20).

[1] = system: rice knock-out mutants of pollux and dmi3; assay: Root architecture modification in rice Ospollux and Osdmi3 mutants; assay type: in vivo, Oryza sativa cv Nipponbare; conditions: 10^−8M; Ospollux and Osdmi3 mutants vs wild-type; FIG. 4
Method: as §1
as §2, with “Lateral roots were defined as large and fine lateral roots emerging from crown roots, as well as fine lateral roots emerging from large lateral roots.” left out, “Root type characterizations were based upon the descriptions in Gutjahr et al. (19).” left out, “All statistical analysis was conducted using the R software package (20).” left out
To assess the role of the common symbiotic pathway in regulating root architecture modifications in response to purified LCOs and COs, we quantified root responses to mycorrhizal signals in rice knock-out mutants of pollux (upstream of calcium spiking) and dmi3 (downstream of calcium spiking).

Hard Red Spring Wheat = assay: Seed treatment of hard red spring wheat in pots; assay type: in vivo; conditions: seed coating 125 μl of 10^−6 M, 2 weeks after planting
Method: (§3) Five grams of hard red spring wheat seeds were added to three separate 50 ml tubes. A water solution containing 0.5% ethanol was added to the control tube, 125 μl of 10^−6 M CO4 solution was added to the CO4 tube, and 125 μl of 10^−6 M CO8 solution was added to the CO8 tube. Each tube was then shaken to coat the seeds. Seeds were potted immediately following treatment into moistened SUNGRO® potting mix in 4×6×6 cm pots. Plants were watered by pouring water into the tray containing the pots up to about ¾ inch high. After sowing the seeds, the pots were randomly distributed (16 pots per treatment) throughout the tray and placed underneath continuous light at room temperature for 1 week. Liquid Fahräeus medium (plant fertilizer solution; see above) was applied every 2 days or when necessary. After a week, the pots were placed underneath 10 h light and 14 h dark cycle at room temperature for 1 week. After 1 week underneath 10 h light and 14 h dark cycle (2 weeks after planting), the plants were carefully removed from the pots, and as much soil as possible was shaken off. The remaining soil was removed by submerging the root system into a beaker of water. The number of primary roots (PR), lateral roots (LR), root system length (RSL) and dry weight (DW) was then measured for all plants.

corn (maize) = assay: Seed treatment of corn in pots; assay type: in vivo; conditions: seed coating 125 μl of 10^−6 M, 2 weeks after planting
Method: as §3, with “corn (maize)” for “hard red spring wheat”

| Compound | crown root growth (rice) | lateral root growth (rice) | dependence of lateral root growth promotion on POLLUX / DMI3 [1] | Number of Lateral Roots (Hard Red Spring Wheat) | Number of Primary Roots (Hard Red Spring Wheat) | Root System Length (cm) (Hard Red Spring Wheat) | Average Dry Weight (corn (maize)) | Average Root System Length (corn (maize)) | Average Seminal Roots (corn (maize)) |
| --- | --- | --- | --- | --- | --- | --- | --- | --- | --- |
| CC(=O)N[C@H]1[C@H](O[C@H]2[C@H](O)[C@@H](NC(C)=O)C(O)O[C@@H]2CO)O[C@H](CO)[C@@H](O[C@@H]2O[C@H](CO)[C@@H](O[C@@H]3O[C@H](CO)[C@@H](O)[C@H](O)[C@H]3NC(C)=O)[C@H](O)[C@H]2NC(C)=O)[C@@H]1O (stereo partly drawn) [CO4, tetra-N-acetylchitotetraose] | promoted | promoted | dependent on both POLLUX and DMI3 | 16.25 | 3.15 | 11.75 cm | 0.1225 | 23.76 | 4.45 |
| CC(=O)N[C@H]1[C@H](O[C@H]2[C@H](O)[C@@H](NC(C)=O)[C@H](O[C@H]3[C@H](O)[C@@H](NC(C)=O)[C@H](O[C@H]4[C@H](O)[C@@H](NC(C)=O)C(O)O[C@@H]4CO)O[C@@H]3CO)O[C@@H]2CO)O[C@H](CO)[C@@H](O[C@@H]2O[C@H](CO)[C@@H](O[C@@H]3O[C@H](CO)[C@@H](O[C@@H]4O[C@H](CO)[C@@H](O[C@@H]5O[C@H](CO)[C@@H](O)[C@H](O)[C@H]5NC(C)=O)[C@H](O)[C@H]4NC(C)=O)[C@H](O)[C@H]3NC(C)=O)[C@H](O)[C@H]2NC(C)=O)[C@@H]1O (stereo partly drawn) [CO8, octa-N-acetyl-chitooctaose] | promoted | promoted | dependent on POLLUX | 14.30 | 3.35 | 12.22 cm | 0.1229 | 21.42 | 4.75 |

— patent US10149472B2, “Chitin oligomers for use in promoting non-leguminous plant growth and development” (Wisconsin Alumni Research Foundation, priority 2015, dated 2018)
